Target: hERG (Homo sapiens, UniProt Q12809)
Test: Patch clamp assay (hERG tail currents, whole-cell)
Protocol: The 35 mm culture dishes upon which cells were seeded at a density allowing single cells to be recorded were placed on the dish holder of the microscope and continuously perfused (at approximately 1 mL/min) with the bath solution described in section 4.6. All solutions applied to cells including the pipette solution were maintained at room temperature (19° C. to 30° C.). After formation of a Gigaohm seal between the patch electrodes and individual hERG stably transfected HEK 293 cells (pipette resistance range: 2.0 MS to 7.0 MS; seal resistance range: >1GΩ) the cell membrane across the pipette tip was ruptured to assure electrical access to the cell interior (whole-cell patch-configuration). In case the quality of the seal was poor, the process of seal formation was repeated with a different cell and a new pipette. As soon as a stable seal could be established, hERG outward tail currents were measured upon depolarization of the cell membrane to +20 mV for 2 s (activation of channels) from a holding potential of −80 mV and upon subsequent repolarization to −40 mV for 3 s. This voltage protocol (as shown below) was run at least 10 times at intervals of 10 s. If current density was judged to be too low for measurement, another cell was recorded.
During wash-in of the test item the voltage protocol indicated above was run continuously again at 10 s intervals until the steady-state level of block was reached.
The IC50 was determined by fitting the dose response curve with a 2-parameter logistic function (amax=100%).

Sequence of hERG (Q12809 whole entry): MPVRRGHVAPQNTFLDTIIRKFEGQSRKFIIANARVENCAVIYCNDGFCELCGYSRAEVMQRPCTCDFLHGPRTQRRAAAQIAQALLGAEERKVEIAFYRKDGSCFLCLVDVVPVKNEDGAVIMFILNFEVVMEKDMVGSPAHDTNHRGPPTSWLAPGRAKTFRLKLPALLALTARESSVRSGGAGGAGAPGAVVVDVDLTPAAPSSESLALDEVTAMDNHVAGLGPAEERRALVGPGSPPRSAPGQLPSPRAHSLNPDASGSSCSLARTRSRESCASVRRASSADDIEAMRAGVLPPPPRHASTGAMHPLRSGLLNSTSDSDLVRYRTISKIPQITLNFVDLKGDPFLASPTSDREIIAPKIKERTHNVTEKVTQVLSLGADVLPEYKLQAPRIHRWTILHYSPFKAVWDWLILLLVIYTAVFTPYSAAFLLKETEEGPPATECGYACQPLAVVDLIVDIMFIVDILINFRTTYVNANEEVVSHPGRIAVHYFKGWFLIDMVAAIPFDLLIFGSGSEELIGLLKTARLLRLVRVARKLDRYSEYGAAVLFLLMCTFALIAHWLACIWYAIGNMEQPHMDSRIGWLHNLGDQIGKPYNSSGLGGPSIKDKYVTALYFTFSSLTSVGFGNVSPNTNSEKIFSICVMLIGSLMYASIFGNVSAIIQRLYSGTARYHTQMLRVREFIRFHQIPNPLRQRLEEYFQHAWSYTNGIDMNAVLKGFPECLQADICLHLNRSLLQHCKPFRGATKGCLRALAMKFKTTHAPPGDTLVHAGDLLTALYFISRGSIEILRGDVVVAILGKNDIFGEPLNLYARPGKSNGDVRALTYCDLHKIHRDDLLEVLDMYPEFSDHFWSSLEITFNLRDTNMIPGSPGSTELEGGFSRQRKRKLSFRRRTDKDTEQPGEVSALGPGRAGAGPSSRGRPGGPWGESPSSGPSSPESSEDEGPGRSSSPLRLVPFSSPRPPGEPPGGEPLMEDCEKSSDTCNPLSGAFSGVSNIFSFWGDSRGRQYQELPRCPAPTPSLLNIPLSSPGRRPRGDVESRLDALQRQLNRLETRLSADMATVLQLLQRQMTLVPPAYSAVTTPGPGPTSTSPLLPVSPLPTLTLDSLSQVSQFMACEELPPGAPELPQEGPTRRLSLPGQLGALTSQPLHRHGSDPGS

Question: For CCNS(=O)(=O)N[C@H]1CC[C@H](CN2CCC3(CC2)CN(c2ncnnc2Oc2ccc(F)cc2C(=O)N(CC(F)(F)F)C(C)C)C3)OC1 (stereo in doubt) [Example 193, 2-((5-(7-(((2R,5S)-5-((N-Ethylsulfamoyl)amino)tetrahydro-2H-pyran-2-yl)methyl)-2,7-diazaspiro[3.5]nonan-2-yl)-1,2,4-triazin-6-yl)oxy)-5-fluoro-N-isopropyl-N-(2,2,2-trifluoroethyl)benzamide], which “hERG % Remaining” value (30 μM compound) is on record?
Answer: +++ (≥66%)

Question: Which “hERG % Remaining” value (10 μM compound) does the source give for CCN(C(=O)c1cc(F)ccc1Oc1cncnc1N1CC2(CCN(C[C@@H]3CC[C@@H](NC(=O)OC(C)(C)C)CO3)CC2)C1)C(C)C [Example 11, tert-Butyl ((3R,6S)-6-((2-(5-(2-(ethyl(isopropyl)carbamoyl)-4-fluorophenoxy)pyrimidin-4-yl)-2,7-diazaspiro[3.5]nonan-7-yl)methyl)tetrahydro-2H-pyran-3-yl)carbamate] here?
Answer: + (<33%)

Question: And the “hERG % Remaining” value (30 μM compound)?
Answer: + (<33%)

Question: What does the source list for CCN(C(=O)c1cc(F)ccc1Oc1cncnc1N1CC2(CCN(C[C@@H]3CC[C@@H](NC(=O)NCC(F)(F)F)CO3)CC2)C1)C(C)C [Example 37, N-Ethyl-5-fluoro-N-isopropyl-2-((4-(7-(((2S,5R)-5-(3-(2,2,2-trifluoroethyl)ureido)tetrahydro-2H-pyran-2-yl)methyl)-2,7-diazaspiro[3.5]nonan-2-yl)pyrimidin-5-yl)oxy)benzamide]?
Answer: hERG % Remaining (10 μM compound): + (<33%); hERG % Remaining (30 μM compound): + (<33%)

Question: Which “hERG % Remaining” value (10 μM compound) does the source give for CCN(C(=O)c1cc(F)ccc1Oc1cncnc1N1CC2(CCN(C[C@@H]3CC[C@@H](NS(=O)(=O)c4ccccn4)CO3)CC2)C1)C(C)C [Example 58, N-ethyl-5-fluoro-N-isopropyl-2-((4-(7-(((2S,5R)-5-(pyridine-2-sulfonamido)tetrahydro-2H-pyran-2-yl)methyl)-2,7-diazaspiro[3.5]nonan-2-yl)pyrimidin-5-yl)oxy)benzamide] here?
Answer: +++ (≥66%)

Question: What about the “hERG % Remaining” value (30 μM compound) of the same compound?
Answer: ++ (233% and ≤66%)

Question: What does the source list for CCN(C(=O)c1cc(F)ccc1Oc1cncnc1N1CC2(CCN(C[C@@H]3CC[C@@H](NS(=O)(=O)c4ccccc4Cl)CO3)CC2)C1)C(C)C [Example 59, 2-((4-(7-(((2S,5R)-5-((2-Chlorophenyl)sulfonamido)tetrahydro-2H-pyran-2-yl)methyl)-2,7-diazaspiro[3.5]nonan-2-yl)pyrimidin-5-yl)oxy)-N-ethyl-5-fluoro-N-isopropylbenzamide]?
Answer: hERG % Remaining (10 μM compound): + (<33%); hERG % Remaining (30 μM compound): + (<33%)

Question: Which results are given for CCN(C(=O)c1cc(F)ccc1Oc1cncnc1N1CC2(CCN(C[C@@H]3CC[C@@H](NS(=O)(=O)c4ccc(OC)cc4)CO3)CC2)C1)C(C)C [Example 62, N-Ethyl-5-fluoro-N-isopropyl-2-((4-(7-(((2S,5R)-5-((4-methoxyphenyl)sulfonamido)tetrahydro-2H-pyran-2-yl)methyl)-2,7-diazaspiro[3.5]nonan-2-yl)pyrimidin-5-yl)oxy)benzamide]?
Answer: hERG % Remaining (10 μM compound): + (<33%); hERG % Remaining (30 μM compound): + (<33%)

Question: How did the “hERG % Remaining” value (10 μM compound) turn out when CCN(C(=O)c1cc(F)ccc1Oc1cncnc1N1CC2(CCN(C[C@@H]3CC[C@@H](NS(=O)(=O)c4cccnc4)CO3)CC2)C1)C(C)C [Example 63, N-Ethyl-5-fluoro-N-isopropyl-2-((4-(7-(((2S,5R)-5-(pyridine-3-sulfonamido)tetrahydro-2H-pyran-2-yl)methyl)-2,7-diazaspiro[3.5]nonan-2-yl)pyrimidin-5-yl)oxy)benzamide] was run?
Answer: +++ (≥66%)

Question: And the “hERG % Remaining” value (30 μM compound)?
Answer: ++ (233% and ≤66%)

Question: Which “hERG % Remaining” value (10 μM compound) does the source give for CCN(C(=O)c1cc(F)ccc1Oc1cncnc1N1CC2(CCN(C[C@@H]3CC[C@@H](NS(=O)(=O)N4CCOCC4)CO3)CC2)C1)C(C)C [Example 64, N-Ethyl-5-fluoro-N-isopropyl-2-((4-(7-(((2S,5R)-5-(morpholine-4-sulfonamido)tetrahydro-2H-pyran-2-yl)methyl)-2,7-diazaspiro[3.5]nonan-2-yl)pyrimidin-5-yl)oxy)benzamide] here?
Answer: +++ (≥66%)

Question: What about the “hERG % Remaining” value (30 μM compound) of the same compound?
Answer: ++ (233% and ≤66%)

Question: CCN(C(=O)c1cc(F)ccc1Oc1cncnc1N1CC2(CCN(C[C@@H]3CC[C@@H](NS(=O)(=O)c4ccccc4OC)CO3)CC2)C1)C(C)C [Example 65, N-Ethyl-5-fluoro-N-isopropyl-2-((4-(7-(((2S,5R)-5-((2-methoxyphenyl)sulfonamido)tetrahydro-2H-pyran-2-yl)methyl)-2,7-diazaspiro[3.5]nonan-2-yl)pyrimidin-5-yl)oxy)benzamide] was tested. Which “hERG % Remaining” value (10 μM compound) did it give?
Answer: ++ (233% and ≤66%)

Question: And the “hERG % Remaining” value (30 μM compound)?
Answer: + (<33%)

Question: For CCN(C(=O)c1cc(F)ccc1Oc1cncnc1N1CC2(CCN(C[C@@H]3CC[C@@H](NS(=O)(=O)c4cccc(OC)c4)CO3)CC2)C1)C(C)C [Example 66, N-Ethyl-5-fluoro-N-isopropyl-2-((4-(7-(((2S,5R)-5-((3-methoxyphenyl)sulfonamido)tetrahydro-2H-pyran-2-yl)methyl)-2,7-diazaspiro[3.5]nonan-2-yl)pyrimidin-5-yl)oxy)benzamide], which “hERG % Remaining” value (10 μM compound) is on record?
Answer: + (<33%)

Question: And the “hERG % Remaining” value (30 μM compound)?
Answer: + (<33%)

Question: What does the source list for CCN(C(=O)c1cc(F)ccc1Oc1cncnc1N1CC2(CCN(C[C@@H]3CC[C@@H](NS(=O)(=O)N4CCC4)CO3)CC2)C1)C(C)C [Example 69, 2-((4-(7-(((2S,5R)-5-(Azetidine-1-sulfonamido)tetrahydro-2H-pyran-2-yl)methyl)-2,7-diazaspiro[3.5]nonan-2-yl)pyrimidin-5-yl)oxy)-N-ethyl-5-fluoro-N-isopropylbenzamide]?
Answer: hERG % Remaining (10 μM compound): +++ (≥66%); hERG % Remaining (30 μM compound): ++ (233% and ≤66%)

Question: Which “hERG % Remaining” value (10 μM compound) does the source give for CCN(C(=O)c1cc(F)ccc1Oc1cncnc1N1CC2(CCN(C[C@@H]3CC[C@@H](NS(=O)(=O)NC)CO3)CC2)C1)C(C)C [Example 76, N-Ethyl-5-fluoro-N-isopropyl-2-((4-(7-(((2S,5R)-5-((N-methylsulfamoyl)amino)tetrahydro-2H-pyran-2-yl)methyl)-2,7-diazaspiro[3.5]nonan-2-yl)pyrimidin-5-yl)oxy)benzamide] here?
Answer: +++ (≥66%)

Question: What about the “hERG % Remaining” value (30 μM compound) of the same compound?
Answer: +++ (≥66%)

Question: What does the source list for CC(C)N(C(=O)c1cc(F)ccc1Oc1cncnc1N1CC2(CCN(C[C@@H]3CC[C@@H](NS(=O)(=O)N4CCOCC4)CO3)CC2)C1)C(C)C [Example 78, 5-Fluoro-N,N-diisopropyl-2-((4-(7-(((2S,5R)-5-(morpholine-4-sulfonamido)tetrahydro-2H-pyran-2-yl)methyl)-2,7-diazaspiro[3.5]nonan-2-yl)pyrimidin-5-yl)oxy)benzamide]?
Answer: hERG % Remaining (10 μM compound): +++ (≥66%); hERG % Remaining (30 μM compound): +++ (≥66%)

Question: How did the “hERG % Remaining” value (30 μM compound) turn out when CC(C)N(C(=O)c1cc(F)ccc1Oc1cncnc1N1CC2(CCN(C[C@@H]3CC[C@@H](NS(=O)(=O)N4CCC4)CO3)CC2)C1)C(C)C [Example 88, 2-((4-(7-(((2S,5R)-5-(Azetidine-1-sulfonamido)tetrahydro-2H-pyran-2-yl)methyl)-2,7-diazaspiro[3.5]nonan-2-yl)pyrimidin-5-yl)oxy)-5-fluoro-N,N-diisopropylbenzamide] was run?
Answer: +++ (≥66%)

Question: CC(C)N(C(=O)c1cc(F)ccc1Oc1cncnc1N1CC2(CCN(C[C@@H]3CC[C@@H](NS(=O)(=O)N(C)C(C)C)CO3)CC2)C1)C(C)C [Example 89, 5-Fluoro-N,N-diisopropyl-2-((4-(7-(((2S,5R)-5-((N-isopropyl-N-methylsulfamoyl)amino)tetrahydro-2H-pyran-2-yl)methyl)-2,7-diazaspiro[3.5]nonan-2-yl)pyrimidin-5-yl)oxy)benzamide] was tested. Which “hERG % Remaining” value (30 μM compound) did it give?
Answer: ++ (233% and ≤66%)

Question: Which “hERG % Remaining” value (10 μM compound) does the source give for CC(C)N(C(=O)c1cc(F)ccc1Oc1cncnc1N1CC2(CCN(C[C@@H]3CC[C@@H](NS(N)(=O)=O)CO3)CC2)C1)C(C)C [Example 90, 5-Fluoro-N,N-diisopropyl-2-((4-(7-(((2S,5R)-5-(sulfamoylamino)tetrahydro-2H-pyran-2-yl)methyl)-2,7-diazaspiro[3.5]nonan-2-yl)pyrimidin-5-yl)oxy)benzamide] here?
Answer: +++ (≥66%)

Question: And the “hERG % Remaining” value (30 μM compound)?
Answer: +++ (≥66%)

Question: How did the “hERG % Remaining” value (1 μM compound) turn out when CC(C)N(C(=O)c1cc(F)ccc1Oc1cncnc1N1CC2(CCN(C[C@@H]3CC[C@@H](NS(=O)(=O)N(C)C)CO3)CC2)C1)C1CC1 [Example 93, N-Cyclopropyl-2-((4-(7-(((2S,5R)-5-((N,N-dimethylsulfamoyl)amino)tetrahydro-2H-pyran-2-yl)methyl)-2,7-diazaspiro[3.5]nonan-2-yl)pyrimidin-5-yl)oxy)-5-fluoro-N-isopropylbenzamide] was run?
Answer: +++ (≥66%)

Question: What about the “hERG % Remaining” value (3 μM compound) of the same compound?
Answer: +++ (≥66%)

Question: What about the “hERG % Remaining” value (10 μM compound) of the same compound?
Answer: +++ (≥66%)

Question: And the “hERG % Remaining” value (30 μM compound)?
Answer: ++ (233% and ≤66%)

Question: What about the “hERG % Remaining” value (100 μM compound) of the same compound?
Answer: + (<33%)

Question: CC(C)N(CC(F)F)C(=O)c1cc(F)ccc1Oc1cncnc1N1CC2(CCN(C[C@@H]3CC[C@@H](NS(=O)(=O)N4CCOCC4)CO3)CC2)C1 [Example 94, N-(2,2-Difluoroethyl)-5-fluoro-N-isopropyl-2-((4-(7-(((2S,5R)-5-(morpholine-4-sulfonamido)tetrahydro-2H-pyran-2-yl)methyl)-2,7-diazaspiro[3.5]nonan-2-yl)pyrimidin-5-yl)oxy)benzamide] was tested. Which “hERG % Remaining” value (10 μM compound) did it give?
Answer: +++ (≥66%)

Question: And the “hERG % Remaining” value (30 μM compound)?
Answer: ++ (233% and ≤66%)

Question: CC(C)N(CC(F)F)C(=O)c1cc(F)ccc1Oc1cncnc1N1CC2(CCN(C[C@@H]3CC[C@@H](NS(=O)(=O)N(C)C)CO3)CC2)C1 [Example 95, N-(2,2-Difluoroethyl)-2-((4-(7-(((2S,5R)-5-((N,N-dimethylsulfamoyl)amino)tetrahydro-2H-pyran-2-yl)methyl)-2,7-diazaspiro[3.5]nonan-2-yl)pyrimidin-5-yl)oxy)-5-fluoro-N-isopropylbenzamide] was tested. Which “hERG % Remaining” value (10 μM compound) did it give?
Answer: +++ (≥66%)

Question: And the “hERG % Remaining” value (30 μM compound)?
Answer: ++ (233% and ≤66%)

Question: And the “hERG IC50 (μM)” value (hERG stably transfected HEK 293 cells)?
Answer: + (<25 PM)

Question: Which results are given for CCN(CC)S(=O)(=O)N[C@@H]1CC[C@@H](CN2CCC3(CC2)CN(c2ncncc2Oc2ccc(F)cc2C(=O)N(CC(F)F)C(C)C)C3)OC1 [Example 97, 2-((4-(7-(((2S,5R)-5-((N,N-Diethylsulfamoyl)amino)tetrahydro-2H-pyran-2-yl)methyl)-2,7-diazaspiro[3.5]nonan-2-yl)pyrimidin-5-yl)oxy)-N-(2,2-difluoroethyl)-5-fluoro-N-isopropylbenzamide]?
Answer: hERG % Remaining (10 μM compound): ++ (233% and ≤66%); hERG % Remaining (30 μM compound): + (<33%)

Source: patent publication US20240400564A1 (Syndax Pharmaceuticals, Inc, priority 2021, published 2024)
